{"source": "paper PMC5376326", "about": "“Inhibition of ANO1 by luteolin and its cytotoxicity in human prostate cancer PC-3 cells” (PLoS ONE, 2017)", "key": {"PC-3 cells [1]": {"system": "PC-3 cells", "assay": "Cell proliferation (MTS) assay in PC-3 cells", "format": "cell-based, human", "settings": "24 hour; for Inhibition of cell proliferation, high versus low ANO1 expressing PC-3 cells: 3-100 μM", "method": "PC-3 cells were seeded to a confluency of ~30% on Day 1 in 96-well plates. […] After 24 hour elapsed, the influence of luteolin and kaempferol on the cell viability was estimated by MTS assay. Briefly, the cells were reincubated with MTS for 1 hour. The soluble formazan produced by cellular reduction of MTS was quantified by measuring the absorbance at 490 nm with Infinite M200 (Tecan, Grödig, Austria) microplate reader. MTS assay was done using CellTiter 96 Aqueous One Solution Cell Proliferation Assay kit (Promega, Madison, WI)."}, "PC-3 cells [2]": {"system": "PC-3 cells", "assay": "Intracellular calcium measurement (Fluo-4) in PC-3 cells", "format": "cell-based, human", "settings": "100 μM ATP", "method": "Intracellular calcium levels were monitored using Fluo-4 NW calcium assay kit (Invitrogen, Carlsbad, CA) as per the manufacturer's protocol in FRT and PC-3 cells. Briefly, the cells were cultured in a 96 well plate and incubated with 100 μL assay buffer including Fluo-4 NW. After 1 hour incubation, Fluo-4 fluorescence was measured with a FLUOstar Omega microplate reader equipped with syringe pumps and custom Fluo-4 excitation/emission filters (485/538 nm). Intracellular calcium increase was induced by application of 100 μM ATP."}, "human ANO1 (abc)": {"target": "T1, human ANO1 (abc) (Homo sapiens, UniProt Q5XXA6, DEL476-501)", "T1 sequence (Q5XXA6 with tags, fused parts or gaps isoform Q5XXA6-5 DEL539-564)": "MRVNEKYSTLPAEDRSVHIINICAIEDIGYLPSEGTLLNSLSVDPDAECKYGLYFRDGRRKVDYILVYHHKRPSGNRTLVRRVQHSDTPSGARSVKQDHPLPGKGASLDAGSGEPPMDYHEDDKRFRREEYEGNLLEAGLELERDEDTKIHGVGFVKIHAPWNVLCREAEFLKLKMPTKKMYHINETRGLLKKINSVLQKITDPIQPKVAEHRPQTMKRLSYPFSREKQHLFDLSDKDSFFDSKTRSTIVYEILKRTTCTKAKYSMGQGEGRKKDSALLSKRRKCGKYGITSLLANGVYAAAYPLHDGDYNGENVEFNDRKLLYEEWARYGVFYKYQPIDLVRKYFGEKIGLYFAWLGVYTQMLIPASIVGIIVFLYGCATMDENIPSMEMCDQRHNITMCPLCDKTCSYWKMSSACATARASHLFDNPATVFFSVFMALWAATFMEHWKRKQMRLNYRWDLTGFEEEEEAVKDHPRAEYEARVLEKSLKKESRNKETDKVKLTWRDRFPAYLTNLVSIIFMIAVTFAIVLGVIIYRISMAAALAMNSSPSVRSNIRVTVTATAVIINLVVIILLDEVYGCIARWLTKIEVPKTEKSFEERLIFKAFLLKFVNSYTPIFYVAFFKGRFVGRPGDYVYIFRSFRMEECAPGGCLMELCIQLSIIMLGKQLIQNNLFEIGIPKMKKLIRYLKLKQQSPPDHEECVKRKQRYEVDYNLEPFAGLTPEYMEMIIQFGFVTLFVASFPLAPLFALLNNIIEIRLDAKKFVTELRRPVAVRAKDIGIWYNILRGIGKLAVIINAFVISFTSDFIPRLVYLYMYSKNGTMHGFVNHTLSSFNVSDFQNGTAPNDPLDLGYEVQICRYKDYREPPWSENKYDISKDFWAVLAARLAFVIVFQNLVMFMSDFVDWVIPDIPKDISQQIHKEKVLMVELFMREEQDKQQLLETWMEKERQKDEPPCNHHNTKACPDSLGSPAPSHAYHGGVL", "assay": "YFP fluorescence quenching assay (iodide influx) in FRT cells expressing human ANO1", "format": "cell-based", "settings": "for IC50: FRT cells expressing ANO1 and YFP, ATP activation, mean ± S.E., n = 3, read-out: IC50, ANO1 inhibition (YFP fluorescence quenching)", "method": "Fisher rat thyroid (FRT) cells were stably transfected with human ANO1 (abc) or mouse ANO2 and the halide sensor YFP as described in previous study. FRT cells were cultured in Coon`s modified F12 medium with 10% FBS, 2 mM L-glutamine, 100 units/ml penicillin and 100 μg/ml streptomycin at 37°C and 5% CO2. PC-3 cells were grown in RPMI 1640 medium supplemented with 10% FBS, 100 units/ml penicillin and 100 μg/ml streptomycin at 37°C and 5% CO2. There were populations of PC-3 cells with high and low expression of ANO1. To separate high and low levels of ANO1 expressing PC-3 cells, cells were stably transfected with the halide sensor YFP-H148Q/I152L/F46L and then the cells were plated on 96 well plates at 1 cell per well. After two weeks of incubation, high and low levels of ANO1 expressing PC-3 cells were separated by YFP quenching assay. ANO1 was activated by 100 μM ATP.\nANO1 and YFP expressing FRT cells were plated in 96-well black-walled microplates (Corning Inc., Corning, NY) at a density of 20,000 cells per well. Assays were done using FLUOstar Omega microplate reader (BMG Labtech, Ortenberg, Germany) and MARS Data Analysis Software (BMG Labtech) as described in our previous study. Briefly, each well of 96-well plate was washed 3 times in PBS (200 μL/wash) and test compounds were added to each well at 25 μM final concentration. After 10 minutes incubation at 37°C, 96-well plates were transferred to the plate reader for fluorescence assay. Each well was assayed individually for ANO1-mediated I^- influx by monitoring YFP fluorescence continuously (400 ms per point) for 2 s (baseline), then 140 mM I^- solution containing 200 μM ATP was added at 2 s and then YFP fluorescence was recorded for 6 s. Initial iodide influx rate was determined from the initial slope of fluorescence decrease, by nonlinear regression, following infusion of iodide with ATP."}, "ANO1": {"target": "T2, ANO1 (Homo sapiens, UniProt Q5XXA6, DEL476-501)", "T2 sequence (Q5XXA6 with tags, fused parts or gaps isoform Q5XXA6-5 DEL539-564)": "T1 sequence (Q5XXA6 with tags, fused parts or gaps isoform Q5XXA6-5 DEL539-564)", "assay": "Apical membrane (short-circuit) current in ANO1-expressing FRT cells", "format": "cell-based", "settings": "for Block of ANO1 chloride channel current: pretreated 20 min, 100 μM ATP, FRT-ANO1 cells", "method": "Snapwell inserts containing ANO1-expressing FRT cells were mounted in Ussing chambers (Physiologic Instruments, San Diego, CA). The basolateral bath was filled with HCO3^--buffered solution and the apical bath was filled with a half-Cl^- solution. The basolateral membrane was permeabilized with 250 μg/mL amphotericin B. The cells were bathed for a 20 min stabilization period and aerated with 95% O2 / 5%CO2 at 37°C. Luteolin and kaempferol were applied to the apical and basolateral bath solution and then ATP was added to the apical bath solution to induce intracellular calcium increase. Apical membrane currents were measured with an EVC4000 Multi-Channel V/I Clamp (World Precision Instruments, Sarasota, FL) and recorded using PowerLab 4/35 (AD Instruments, Castle Hill, Australia). Data were collected and analyzed with ADInstruments acquisition software Labchart Pro 7 software. The sampling rate was 4 Hz."}}, "note": "Where “and” joins values, the source holds several entries; their conditions need not be identical. Identical values can stand only once.", "data": [{"compound": "O=c1c(O)c(-c2ccc(O)cc2)oc2cc(O)cc(O)c12", "note": "[Kaempferol]", "values": [{"measurement": "Inhibition of cell proliferation, high versus low ANO1 expressing PC-3 cells", "setting": "PC-3 cells [1]", "value": "did not show the significant difference"}, {"measurement": "Effect on ATP-induced intracellular calcium increase", "setting": "PC-3 cells [2]", "value": "did not alter"}, {"measurement": "IC50", "setting": "human ANO1 (abc)", "value": "14.55 ± 0.03", "unit": "µM"}, {"measurement": "Block of ANO1 chloride channel current", "setting": "ANO1; 10 μM", "value": "36.2 ± 3.0", "unit": "%"}, {"measurement": "Block of ANO1 chloride channel current", "setting": "ANO1; 30 μM", "value": "55.0 ± 4.1", "unit": "%"}, {"measurement": "Block of ANO1 chloride channel current", "setting": "ANO1; 100 μM", "value": "89.3 ± 2.0", "unit": "%"}]}, {"compound": "O=c1cc(-c2ccc(O)c(O)c2)oc2cc(O)cc(O)c12", "note": "[luteolin]", "values": [{"measurement": "Decrease of cell viability", "setting": "PC-3 cells [1]; 30 μM, PC-3 cells expressing high levels of ANO1", "value": "52.6 ± 3.8", "unit": "%"}, {"measurement": "Inhibition of cell proliferation, high versus low ANO1 expressing PC-3 cells", "setting": "PC-3 cells [1]", "value": "significantly stronger in PC-3 cells with high levels of ANO1 expression"}, {"measurement": "Effect on ATP-induced intracellular calcium increase", "setting": "PC-3 cells [2]", "value": "did not alter"}, {"measurement": "Block of ATP-induced ANO1 activation (YFP)", "setting": "human ANO1 (abc); 100 μM", "value": "almost completely blocked"}, {"measurement": "IC50", "setting": "human ANO1 (abc)", "value": "9.37 µM and ~9.4 µM"}, {"measurement": "Block of PAR2-AP-triggered ANO1 activation", "setting": "ANO1; 100 μM, 20 min pretreatment, PAR2-AP 50 μM", "value": "almost completely blocked"}, {"measurement": "Inhibition of ATP-induced ANO1 activation (apical current)", "setting": "ANO1; 100 μM, ATP 100 μM", "value": "almost completely inhibited"}, {"measurement": "IC50", "setting": "ANO1; FRT cells expressing ANO1, activated by 100 μM ATP, read-out: IC50, ANO1 chloride current (apical membrane current)", "value": "9.8 µM and 9.77 µM and ~10 µM"}, {"measurement": "Reversibility of ANO1 inhibition", "setting": "ANO1; after washing 3 times for 5 min each, re-activation by 50 μM PAR2-AP", "value": "reversibly inhibited"}]}]}
